The source of these data is PubChem BioAssay AID256 (DTP/NCI, 2004).

This experiment deals with CD2F1 mice, L1210 leukemia ip, survival T/C. Briefly: NCI In Vivo Anticancer Drug Screen. Data for tumor model L1210 Leukemia (intraperitoneal) in CD2F1 (CDF1) mice. Particulars: higher = longer survival. The essentials:
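In this screen, transplantable tumors were grown in mice given either the compound or its vehicle. Results were expressed as the treated measurement relative to the control measurement.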

[1] abbreviates: endpoint: mean survival time, dose: 400.0 mg/kg/injection, schedule: Q04DX003 (ip), vehicle: saline with Tween-80.
Setting [2] is: endpoint: mean survival time, dose: 100.0 mg/kg/injection, schedule: Q01DX009 (ip), vehicle: saline with Tween-80.
The mark [3] stands for this setting: endpoint: mean survival time, dose: 200.0 mg/kg/injection, schedule: Q01DX009 (ip), vehicle: saline with Tween-80.
[4] abbreviates: endpoint: mean survival time, dose: 200.0 mg/kg/injection, schedule: Q04DX003 (ip), vehicle: saline with Tween-80.
Where [5] appears, read: endpoint: mean survival time, dose: 400.0 mg/kg/injection, schedule: Q01DX009 (ip), vehicle: saline with Tween-80.
Setting [6] is: endpoint: mean survival time, dose: 100.0 mg/kg/injection, schedule: Q01DX001 (ip), vehicle: Klucel (hydroxypropylcellulose) (HPC).
Where [7] appears, read: endpoint: mean survival time, dose: 200.0 mg/kg/injection, schedule: Q01DX001 (ip), vehicle: Klucel (hydroxypropylcellulose) (HPC).
Where [8] appears, read: endpoint: mean survival time, dose: 400.0 mg/kg/injection, schedule: Q01DX001 (ip), vehicle: Klucel (hydroxypropylcellulose) (HPC).

Each structure is given as a SMILES string. Several values for one entry are separate records, joined by “and”; a condition that tells them apart may be missing. Equal values may be shown once. Toxic doses and inconclusive results are not listed.

As for `NC(=S)N/N=C/c1ccc(OC(=O)COc2ccc(Cl)cc2)cn1`, the T/C runs as follows: (endpoint: mean survival time, dose: 88.0 mg/kg/injection, schedule: Q01DX009 (ip), vehicle: saline with Tween-80) 173 % of control; (endpoint: mean survival time, dose: 100.0 mg/kg/injection, schedule: Q04DX002 (ip), vehicle: saline with Tween-80) 103 % of control and 111 % of control; (endpoint: mean survival time, dose: 118.0 mg/kg/injection, schedule: Q01DX001 (ip), vehicle: saline with Tween-80) 109 % of control; (endpoint: mean survival time, dose: 118.0 mg/kg/injection, schedule: Q04DX003 (ip), vehicle: saline with Tween-80) 150 % of control; (endpoint: mean survival time, dose: 132.0 mg/kg/injection, schedule: Q01DX009 (ip), vehicle: saline with Tween-80) 214 % of control; (endpoint: mean survival time, dose: 178.0 mg/kg/injection, schedule: Q01DX001 (ip), vehicle: saline with Tween-80) 118 % of control. Moreover, the T/C reads like this: (endpoint: mean survival time, dose: 178.0 mg/kg/injection, schedule: Q04DX003 (ip), vehicle: saline with Tween-80) 166 % of control; (endpoint: mean survival time, dose: 200.0 mg/kg/injection, schedule: Q04DX002 (ip), vehicle: saline with Tween-80) 114 % of control; (endpoint: mean survival time, dose: 266.0 mg/kg/injection, schedule: Q01DX001 (ip), vehicle: saline with Tween-80) 123 % of control; (endpoint: mean survival time, dose: 266.0 mg/kg/injection, schedule: Q04DX003 (ip), vehicle: saline with Tween-80) 170 % of control; (endpoint: mean survival time, dose: 300.0 mg/kg/injection, schedule: Q01DX009 (ip), vehicle: saline with Tween-80) 93 % of control; under setting [1], 181 % of control. Further, the T/C is, setting by setting: (endpoint: mean survival time, dose: 600.0 mg/kg/injection, schedule: Q04DX003 (ip), vehicle: saline with Tween-80) 150 % of control; (endpoint: median survival time, dose: 25.0 mg/kg/injection, schedule: Q01DX009 (ip), vehicle: saline with Tween-80) 164 % of control; (endpoint: median survival time, dose: 50.0 mg/kg/injection, schedule: Q01DX009 (ip), vehicle: saline with Tween-80) 188 % of control; (endpoint: median survival time, dose: 50.0 mg/kg/injection, schedule: Q01DX009 (ip), vehicle: saline) 172 % of control; (endpoint: median survival time, dose: 88.0 mg/kg/injection, schedule: Q01DX009 (ip), vehicle: saline with Tween-80) 178 % of control; (endpoint: median survival time, dose: 100.0 mg/kg/injection, schedule: Q01DX009 (ip), vehicle: saline with Tween-80) 175 % of control and 180 % of control. For the same compound, the T/C (endpoint: median survival time, dose: 100.0 mg/kg/injection, schedule: Q01DX009 (ip), vehicle: saline) was 209 % of control; the T/C (endpoint: median survival time, dose: 133.0 mg/kg/injection, schedule: Q01DX009 (ip), vehicle: saline with Tween-80) is 178 % of control; the T/C (endpoint: median survival time, dose: 200.0 mg/kg/injection, schedule: Q01DX009 (ip), vehicle: saline with Tween-80) is 182 % of control and 184 % of control and 213 % of control; the T/C (endpoint: median survival time, dose: 200.0 mg/kg/injection, schedule: Q01DX009 (ip), vehicle: saline) is 172 % of control; the T/C (endpoint: median survival time, dose: 300.0 mg/kg/injection, schedule: Q01DX009 (ip), vehicle: saline with Tween-80) is 102 % of control; the T/C (endpoint: median survival time, dose: 400.0 mg/kg/injection, schedule: Q01DX009 (ip), vehicle: saline with Tween-80) was 108 % of control. In addition, the T/C (endpoint: median survival time, dose: 400.0 mg/kg/injection, schedule: Q01DX009 (ip), vehicle: saline) is 97 % of control.

Regarding `O=S(=O)(N=N/C=C1\C=CC=CN1O)c1cccs1`, the T/C reads like this: (endpoint: mean survival time, dose: 12.5 mg/kg/injection, schedule: Q01DX009 (ip), vehicle: saline with Tween-80) 95 % of control; (endpoint: mean survival time, dose: 25.0 mg/kg/injection, schedule: Q01DX009 (ip), vehicle: saline with Tween-80) 101 % of control; (endpoint: mean survival time, dose: 50.0 mg/kg/injection, schedule: Q01DX009 (ip), vehicle: saline with Tween-80) 103 % of control; under setting [2], 109 % of control; under setting [3], 104 % of control.

As to `Cc1cc(C)c(C(=O)c2ccccc2-c2ccccc2C(=O)c2c(C)cc(C)cc2C)c(C)c1`, the T/C under setting [2] was 86 % of control; the T/C (endpoint: mean survival time, dose: 100.0 mg/kg/injection, schedule: Q04DX003 (ip), vehicle: saline with Tween-80) was 96 % of control; the T/C under setting [3] is 89 % of control; the T/C under setting [4] is 100 % of control; the T/C under setting [5] is 91 % of control; the T/C under setting [1] was 96 % of control.

As for `CCCC1C(=O)N=C(N)NC1=O` (stereo unspecified), the T/C is 97 % of control under setting [6], 104 % of control under setting [7] and 101 % of control under setting [8].

`CCSC(CC(OC(C)=O)C(OC(C)=O)C(COC(C)=O)OC(C)=O)n1cnc2c(Cl)ncnc21` (stereo unspecified): the T/C runs as follows: (endpoint: mean survival time, dose: 12.5 mg/kg/injection, schedule: Q01DX005 (ip), vehicle: other) 98 % of control; (endpoint: mean survival time, dose: 25.0 mg/kg/injection, schedule: Q01DX005 (ip), vehicle: other) 96 % of control; (endpoint: mean survival time, dose: 50.0 mg/kg/injection, schedule: Q01DX005 (ip), vehicle: other) 95 % of control; (endpoint: mean survival time, dose: 100.0 mg/kg/injection, schedule: Q01DX005 (ip), vehicle: other) 104 % of control; (endpoint: mean survival time, dose: 200.0 mg/kg/injection, schedule: Q01DX005 (ip), vehicle: other) 105 % of control.

On to `Clc1cccc(N=Cc2ccc3c(c2)OCO3)c1Cl`, for which the T/C is 100 % of control under setting [6], 97 % of control under setting [7] and 103 % of control under setting [8].

`CCNc1ncnc2nncnc12`: the T/C (endpoint: mean survival time, dose: 100.0 mg/kg/injection, schedule: Q01DX001 (ip), vehicle: carboxymethylcellulose (CMC)) is 98 % of control.

Regarding `CNC/C(C)=C/Cl`, the T/C (endpoint: mean survival time, dose: 50.0 mg/kg/injection, schedule: Q01DX009 (ip), vehicle: acetone) was 96 % of control and the T/C (endpoint: mean survival time, dose: 100.0 mg/kg/injection, schedule: Q01DX009 (ip), vehicle: acetone) was 90 % of control.

In the case of `OCC(O)C(O)C(O)C(O)CO` (stereo unspecified), the T/C is 98 % of control under setting [2]; 96 % of control (endpoint: mean survival time, dose: 100.0 mg/kg/injection, schedule: Q04DX003 (ip), vehicle: saline); 97 % of control under setting [4]; 98 % of control (endpoint: mean survival time, dose: 200.0 mg/kg/injection, schedule: Q04DX003 (ip), vehicle: saline); 98 % of control under setting [5]; 96 % of control (endpoint: mean survival time, dose: 400.0 mg/kg/injection, schedule: Q04DX003 (ip), vehicle: saline). For the same compound, the T/C is 100 % of control (endpoint: median survival time, dose: 75.0 mg/kg/injection, schedule: Q01DX009 (ip), vehicle: saline with Tween-80); 97 % of control (endpoint: median survival time, dose: 150.0 mg/kg/injection, schedule: Q01DX009 (ip), vehicle: saline with Tween-80); 100 % of control (endpoint: median survival time, dose: 600.0 mg/kg/injection, schedule: Q01DX009 (ip), vehicle: saline with Tween-80).

Turning to `CSc1ccc(N2C(N)=NC(N)=NC2(C)C)cc1`, the T/C reads like this: (endpoint: mean survival time, dose: 25.0 mg/kg/injection, schedule: Q04DX002 (ip), vehicle: saline) 95 % of control; (endpoint: mean survival time, dose: 50.0 mg/kg/injection, schedule: Q04DX002 (ip), vehicle: saline) 91 % of control.

For `C(OC[C@H]1CC[C@@H](COCC2CO2)O1)C1CO1` (stereo partly specified), the T/C reads like this: (endpoint: mean survival time, dose: 65.0 mg/kg/injection, schedule: Q01DX009 (ip), vehicle: saline) 107 % of control; (endpoint: mean survival time, dose: 108.0 mg/kg/injection, schedule: Q01DX009 (ip), vehicle: saline) 112 % of control; (endpoint: mean survival time, dose: 178.0 mg/kg/injection, schedule: Q01DX001 (ip), vehicle: saline) 100 % of control; (endpoint: mean survival time, dose: 180.0 mg/kg/injection, schedule: Q01DX009 (ip), vehicle: saline) 124 % of control; (endpoint: mean survival time, dose: 267.0 mg/kg/injection, schedule: Q01DX001 (ip), vehicle: saline) 103 % of control; (endpoint: mean survival time, dose: 400.0 mg/kg/injection, schedule: Q01DX001 (ip), vehicle: saline) 109 % of control. Moreover, for the setting “endpoint: mean survival time, dose: 600.0 mg/kg/injection, schedule: Q01DX001 (ip), vehicle: saline”, the T/C is 121 % of control.

With `CCN(CC)CCOc1ccc(NC(=O)c2ccccc2)cc1`, the T/C by setting is: (endpoint: mean survival time, dose: 6.25 mg/kg/injection, schedule: Q04DX003 (ip), vehicle: saline) 101 % of control; (endpoint: mean survival time, dose: 12.5 mg/kg/injection, schedule: Q04DX003 (ip), vehicle: saline) 101 % of control; (endpoint: mean survival time, dose: 25.0 mg/kg/injection, schedule: Q04DX003 (ip), vehicle: saline) 104 % of control.

For `[I][Pt+2][I].[NH-]CC[NH-]`, the T/C is 115 % of control (endpoint: mean survival time, dose: 20.0 mg/kg/injection, schedule: Q04DX003 (ip), vehicle: water); 116 % of control (endpoint: mean survival time, dose: 40.0 mg/kg/injection, schedule: Q04DX003 (ip), vehicle: water); 120 % of control (endpoint: mean survival time, dose: 80.0 mg/kg/injection, schedule: Q04DX003 (ip), vehicle: water); 115 % of control (endpoint: mean survival time, dose: 160.0 mg/kg/injection, schedule: Q04DX003 (ip), vehicle: water); 93 % of control (endpoint: mean survival time, dose: 320.0 mg/kg/injection, schedule: Q04DX003 (ip), vehicle: water).
